This note sets out measurements from patent US7781644B2, “Arabidosis AtLEJ1 gene involved in inhibiting biosynthesis of jasmonic acid and ethylene and method for producing male-sterile plant using the same” (Korea University Industry and Academy Cooperation Foundation, priority 2006, dated 2010).

Assay [1] has as its system male-sterile AtLEJ1-overexpressed plant. Nature of the assay: Restoration of male-sterile AtLEJ1-overexpressed plant to fertile phenotype by hormone treatment of flower bud cluster. In kind it is in vivo, Arabidopsis. The procedure:
First, a flower bud cluster of the AtLEJ1-overexpressed plant was treated with 500 μM jasmonic acid. For a negative control, non-treatment or water alone, was provided.
(§1) The flowers obtained day 2 after treatment with jasmonic acid were embedded in paraffin (Paraplast) and then stained with phloroglucinol for microscopic observation.

Assay [2] concerns endothecium cells of stamens of the AtLEJ1-overexpressed plant. In words: Phloroglucinol staining of paraffin sections for lignification of endothecium cells of stamens after hormone treatment. In kind it is in vivo, Arabidopsis.
Text: In order to examine the developmental process of anthers at the cell level, flowers of the wild-type and the AtLEJ1-overexpressed plant were dipped in a fixing solution, dehydrated with a series of ethanol solutions, and embedded in paraffin (Paraplast), followed by microtome section at 8 μm. The sections were stained with 2% phloroglucinol to visualize the lignification of the endothecium cells, known to play an important role in anther dehiscence, and were washed with 9N HCl.
as §1

Each structure is given as a SMILES string.

In the case of `NC1(C(=O)O)CC1` [ACC, 1-aminocyclopropane-1-carboxylic acid], the “restoration to a fertile phenotype” value in assay [1] (treatment with 50 mM ACC (FIG. 12)) and in assay [1] (treatment with 500 mM ACC (FIG. 12)) was “restored to a fertile phenotype” throughout. For the same compound, in assay [2] (ACC-treated plant, 50 mM or 500 mM (FIG. 13)), the “lignification of endothecium cells of stamens” value is recorded as “Lignification was also found”.

Turning to `CC/C=C\C[C@H]1C(=O)CC[C@@H]1CC(=O)O` [jasmonic acid], in assay [1] (500 μM jasmonic acid on flower bud cluster, one week after treatment, control remained sterile (FIG. 10)), the “restoration to a fertile phenotype” value is “at least partly, restored to a fertile phenotype”. Moreover, the “anther dehiscence (microscopic observation of treated flowers)” value in assay [1] (500 μM jasmonic acid, day 2 after treatment) was “observed to enter anther dehiscence”. Further, in assay [2] (500 μM jasmonic acid, flowers obtained day 2 after treatment (FIG. 11)), the “lignification of endothecium cells of stamens (phloroglucinol staining)” value is reported as “lignified”.
